Experimental findings from patent US20220363667A1 (Nippon Chemiphar Co., Ltd., priority 2018, published 2022) are described below.

“Also recorded” adds a separate entry of the source.

In the first assay the target is T1, human Cav3.2 channels (Homo sapiens, UniProt O95180).
T1 construct: expressed in transfected cells
T1 sequence (O95180 whole entry): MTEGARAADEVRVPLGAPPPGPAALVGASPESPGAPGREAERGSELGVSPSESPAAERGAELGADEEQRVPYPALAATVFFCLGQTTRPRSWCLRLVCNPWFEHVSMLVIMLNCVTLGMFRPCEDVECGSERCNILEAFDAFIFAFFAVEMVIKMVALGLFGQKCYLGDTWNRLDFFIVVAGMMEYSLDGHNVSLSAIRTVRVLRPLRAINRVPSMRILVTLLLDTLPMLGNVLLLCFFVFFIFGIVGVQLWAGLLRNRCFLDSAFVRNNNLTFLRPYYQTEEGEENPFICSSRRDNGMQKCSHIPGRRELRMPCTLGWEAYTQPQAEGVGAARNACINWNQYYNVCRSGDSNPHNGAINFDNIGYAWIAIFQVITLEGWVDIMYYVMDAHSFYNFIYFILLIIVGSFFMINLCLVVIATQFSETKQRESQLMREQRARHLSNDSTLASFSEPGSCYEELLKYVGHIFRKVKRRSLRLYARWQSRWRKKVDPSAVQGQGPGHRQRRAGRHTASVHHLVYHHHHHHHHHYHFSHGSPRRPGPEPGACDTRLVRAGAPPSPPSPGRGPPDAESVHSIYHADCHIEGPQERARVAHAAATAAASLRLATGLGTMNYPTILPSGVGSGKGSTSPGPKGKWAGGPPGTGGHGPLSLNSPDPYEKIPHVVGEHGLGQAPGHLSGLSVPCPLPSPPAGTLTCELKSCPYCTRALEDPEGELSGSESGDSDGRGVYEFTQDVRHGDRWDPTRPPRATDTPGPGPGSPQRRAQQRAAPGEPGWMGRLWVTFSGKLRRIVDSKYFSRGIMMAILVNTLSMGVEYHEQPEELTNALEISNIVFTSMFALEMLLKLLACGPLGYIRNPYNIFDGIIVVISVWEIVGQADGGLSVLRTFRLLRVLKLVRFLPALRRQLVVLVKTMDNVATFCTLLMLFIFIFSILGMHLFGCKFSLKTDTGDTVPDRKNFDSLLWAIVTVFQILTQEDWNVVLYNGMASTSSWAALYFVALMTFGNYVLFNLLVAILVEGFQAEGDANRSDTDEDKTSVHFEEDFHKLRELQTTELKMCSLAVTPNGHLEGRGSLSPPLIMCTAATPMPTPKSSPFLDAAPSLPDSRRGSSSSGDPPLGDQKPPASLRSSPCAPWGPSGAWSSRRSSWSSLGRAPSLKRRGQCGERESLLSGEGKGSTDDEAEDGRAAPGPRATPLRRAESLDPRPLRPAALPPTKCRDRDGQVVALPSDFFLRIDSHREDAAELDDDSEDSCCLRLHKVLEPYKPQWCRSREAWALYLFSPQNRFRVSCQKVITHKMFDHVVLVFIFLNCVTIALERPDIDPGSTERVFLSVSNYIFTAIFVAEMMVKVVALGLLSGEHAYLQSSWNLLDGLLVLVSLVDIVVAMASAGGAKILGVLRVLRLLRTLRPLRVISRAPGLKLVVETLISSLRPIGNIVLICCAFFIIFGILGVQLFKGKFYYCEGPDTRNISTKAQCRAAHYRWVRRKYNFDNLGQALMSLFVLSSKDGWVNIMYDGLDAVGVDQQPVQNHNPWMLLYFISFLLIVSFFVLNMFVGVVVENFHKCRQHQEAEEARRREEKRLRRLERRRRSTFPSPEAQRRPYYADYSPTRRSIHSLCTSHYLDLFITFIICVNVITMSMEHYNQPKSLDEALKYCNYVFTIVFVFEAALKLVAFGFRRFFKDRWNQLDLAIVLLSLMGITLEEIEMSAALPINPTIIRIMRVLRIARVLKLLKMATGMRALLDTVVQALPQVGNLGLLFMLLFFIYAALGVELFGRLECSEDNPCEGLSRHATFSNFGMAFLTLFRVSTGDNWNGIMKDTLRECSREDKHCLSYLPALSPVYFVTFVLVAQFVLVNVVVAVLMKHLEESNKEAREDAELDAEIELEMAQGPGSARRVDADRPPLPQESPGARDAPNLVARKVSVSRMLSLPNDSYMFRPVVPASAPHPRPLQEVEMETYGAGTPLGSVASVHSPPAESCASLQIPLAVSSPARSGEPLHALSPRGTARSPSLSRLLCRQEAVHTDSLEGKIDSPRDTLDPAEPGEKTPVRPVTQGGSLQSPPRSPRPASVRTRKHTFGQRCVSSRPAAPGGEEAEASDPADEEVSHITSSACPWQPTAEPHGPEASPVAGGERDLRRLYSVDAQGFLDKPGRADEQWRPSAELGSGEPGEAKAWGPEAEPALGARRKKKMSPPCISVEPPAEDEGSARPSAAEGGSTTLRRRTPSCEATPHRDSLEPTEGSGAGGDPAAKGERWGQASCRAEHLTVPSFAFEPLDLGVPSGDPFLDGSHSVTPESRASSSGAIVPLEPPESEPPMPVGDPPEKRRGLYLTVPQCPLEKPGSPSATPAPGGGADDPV
The assay can be described thus: T-type calcium blocking action: intracellular calcium concentration in cells steadily expressing human Cav3.2 channels. Conditions: HEK293 cells steadily expressing human Cav3.2 channels; Fluo-4 AM fluorescence increase after KCl stimulus. The format is cell-based. The text has this: (1) Construction of Cells Steadily Expressing Human Cav3.2 Channels
A sequence obtained by adding HindIII site and a kozak sequence (GCCACC) to the 5′-side of human Cav3.2 channel ORF (Open Reading Frame) gene and adding a KpnI site to the 3′-side of the gene, was incorporated into pcDNA3.1 (+) (Thermo Fisher Scientific, #V790-20), and the plasmid was introduced into HEK293 cells (ATCC No. CRL-1573) according to the protocol of FuGENE (registered trademark) HD Transfection Reagent (Promega, #E2311).
(2) Method for Measuring Intracellular Calcium Concentration
The cell strain steadily expressing human Cav3.2 channels as produced by the testing method (1) was seeded on a 96-well plate using DMEM including 10% FBS, and the cells were cultured for 48 hours under the conditions of 37° C. and 5% CO2. Subsequently, the medium was removed, and each of the wells were washed with buffer A and treated with 80 μL of a fluorescent dye solution including a mixed liquid of 22 μg of a fluorescent calcium indicator, Fluo-4 AM (Dojindo Molecular Technologies, Inc., #F311), 20 μL of dimethyl sulfoxide (DMSO), 1 μL of 10% Pluronic F-127 (Thermo Fisher Scientific, #P6866), and 4 mL of buffer A. After the cells were left to stand for 45 minutes at room temperature under light-shielded conditions, and then the cells were washed with buffer B. DMSO as a negative control and various test compound solutions each obtained by dissolving a test compound dissolved in DMSO, in buffer B so as to obtain a 10-fold concentration of the evaluation concentration, were introduced into respective wells. The final concentration of DMSO was adjusted to 0.1%. The cells were left to stand for another 15 minutes at room temperature under light-shielded conditions, and measurement was made using a microplate reader, EnVision (PerkinElmer Inc.) using the following method. First, the background fluorescence of each well was measured, subsequently an ionophore was introduced into each well, and the baseline fluorescence was measured. Subsequently, buffer B having 83.8 mM KCl added thereto was introduced, and an increase in fluorescence caused by calcium influx generated by the stimulus was measured for 10 seconds. The percentage inhibition was calculated from the maximum fluorescence increase value from the baseline, the logarithmic value of the test compound concentration and the inhibitory activity are plotted, and thereby the IC50 value was calculated. The measurement was carried out by observing the fluorescence at 510 nm that was emitted when the cells were irradiated with excitation light at 485 nm.
Buffer A: 140 mM NaCl, 5 mM KCl, 1 mM MgCl2, 0.5 mM CaCl2, 10 mM Glucose, 10 mM HEPES, pH 7.3
Buffer B: 137.9 mM Choline-Cl, 4.1 mM KCl, 1 mM MgCl2, 0.5 mM CaCl2, 10 mM Glucose, 10 mM HEPES, pH 7.3, equilibrium potential of potassium: −92 mV
In general terms: Calcium flux is commonly read through the fluorescence of an indicator in the cells.
`O=C(N[C@@H]1CCN(c2ncc(C(F)(F)F)cn2)C1)[C@H]1C[C@@H]1c1nc2ccccc2[nH]1` [Example 56, (1S,2S)-2-(1H-benzo[d]imidazol-2-yl)-N—((R)-1-(5-(trifluoromethyl)pyrimidin-2-yl)pyrrolidin-3-yl)cyclopropane-1-carboxyamide]: the IC50 worked out at 290 nM. Take `O=C(N[C@@H]1CCN(c2ccc(F)c(C(F)(F)F)c2)C1)[C@H]1C[C@@H]1c1nc2ccccc2[nH]1` [Example 57, (1S,2S)-2-(1H-benzo[d]imidazol-2-yl)-N—((R)-1-(4-fluoro-3-(trifluoromethyl)phenyl)pyrrolidin-3-yl)cyclopropane-1-carboxyamide]: the IC50 was 20 nM. Regarding `O=C(N[C@@H]1CCN(c2ccc(F)c(C(F)(F)F)c2)C1)[C@H]1C[C@@H]1c1ncc2ccccc2n1` [Example 58, (1S,2S)—N—((R)-1-(4-fluoro-3-(trifluoromethyl)phenyl)pyrrolidin-3-yl)-2-(quinazolin-2-yl)cyclopropane-1-carboxyamide], the half-inhibitory concentration (IC50) came out at 4400 nM. The same measure, in the same setting: the result for `CS(=O)(=O)c1cccc(N2CC[C@@H](NC(=O)[C@H]3C[C@@H]3c3nc4ccccc4[nH]3)C2)c1` [Example 59, (1S,2S)-2-(1H-benzo[d]imidazol-2-yl)-N—((R)-1-(3-(methylsulfonyl)phenyl)pyrrolidin-3-yl)cyclopropane-1-carboxyamide] reads 1800 nM; that for `N#Cc1cccc(N2CC[C@@H](NC(=O)[C@H]3C[C@@H]3c3nc4ccccc4[nH]3)C2)c1` [Example 60, (1S,2S)-2-(1H-benzo[d]imidazol-2-yl)-N—((R)-1-(3-cyanophenyl)pyrrolidin-3-yl)cyclopropane-1-carboxyamide], 470 nM; that for `O=C(N[C@@H]1CCN(c2ccnc(C(F)(F)F)c2)C1)[C@H]1C[C@@H]1c1nc2ccccc2[nH]1` [Example 62, (1S,2S)-2-(1H-benzo[d]imidazol-2-yl)-N—((R)-1-(2-(trifluoromethyl)pyridin-4-yl)pyrrolidin-3-yl)cyclopropane-1-carboxyamide], 410 nM.

Turning to `COc1ncc(N2CC[C@@H](NC(=O)[C@H]3C[C@@H]3c3nc4ccccc4[nH]3)C2)cc1C(F)(F)F` [Example 67, (1S,2S)-2-(1H-benzo[d]imidazol-2-yl)-N—((R)-1-(6-methoxy-5-(trifluoromethyl)pyridin-3-yl)pyrrolidin-3-yl) cyclopropane-1-carboxyamide], the half-inhibitory concentration (IC50) amounted to 29 nM.

For the compound `O=C(N[C@@H]1CCN(c2ccc(C(F)(F)F)nn2)C1)[C@H]1C[C@@H]1c1nc2ccccc2[nH]1` [Example 69, (1S,2S)-2-(1H-benzo[d]imidazol-2-yl)-N—((R)-1-(6-(trifluoromethyl)pyridazin-3-yl)pyrrolidin-3-yl)cyclopropane-1-carboxyamide], the half-inhibitory concentration (IC50) was found to be 1200 nM. Still for that read-out and setting: the result for `O=C(Cc1ccc(C2CC2)cc1)N[C@@H]1CCN(c2ccc(OCC(F)(F)F)nc2)C1` [Example 125, (R)-2-(4-cyclopropylphenyl)-N-(1-(6-(2,2,2-trifluoroethoxy)pyridin-3-yl)pyrrolidin-3-yl)acetamide] reads > 10000 nM; that for `COc1ncc(C(F)(F)F)cc1N1CC[C@@H](NC(=O)Cc2ccc(C3CC3)cc2)C1` [Example 128, (R)-2-(4-cyclopropylphenyl)-N-(1-(2-methoxy-5-(trifluoromethyl)pyridin-3-yl)pyrrolidin-3-yl)acetamide], > 10000 nM; that for `O=C(Cc1ccc(C2CC2)cc1)N[C@@H]1CCCN(c2ccc(C(F)(F)F)nc2)C1` [Example 130, (R)-2-(4-cyclopropylphenyl)-N-(1-(6-(trifluoromethyl)pyridin-3-yl)piperidin-3-yl)acetamide], > 10000 nM. For `NC(C(=O)N[C@@H]1CCN(c2cncc(C(F)(F)F)c2)C1)c1ccc(C2CC2)cc1` (stereo partly drawn) [Example 137B, 2-amino-2-(4-cyclopropylphenyl)-N((R)-1-(5-(trifluoromethyl)pyridin-3-yl)pyrrolidin-3-yl)acetamide], the IC50 came out at 820 nM.

Regarding `O=C(Cc1ccc(C2CC2)cc1)NC1CN(c2ccc(C(F)(F)F)cc2)C1` [Example 169, 2-(4-Cyclopropylphenyl)-N-(1-(4-(trifluoromethyl)phenyl)azetidin-3-yl)acetamide], the half-maximal inhibitory concentration (IC50) was > 10000 nM. As for `O=C(N[C@@H]1CCCN(c2cncc(C(F)(F)F)c2)C1)[C@H]1C[C@@H]1c1nc2ccccc2[nH]1` [Example 186, (1S,23)-2-(1H-benzo[d]imidazol-2-yl)-N—((R)-1-(5-(trifluoromethyl)pyridin-3-yl)piperidin-3-yl)cyclopropane-1-carboxyamide], the half-maximal inhibitory concentration (IC50) is 190 nM.

For a further assay, the system named is SD rats. Put plainly: Rat formalin test. The following applies: po, 30 mg/kg orally once, pain behavior time from 15 to 30 minutes after formalin administration vs vehicle group, read-out: Inhibition ratio (pain behavior inhibition ratio). The format is in vivo. How it is done:
30 mg/kg of a vehicle or a test substance was orally administrated to SD rats once, and according to the method described in McNamara C. R., Mandel-Brehm J., Bautista D. M., Siemens J., Deranian K. L., Zhao M., Hayward N. J., Chong J. A., Julius D., Moran M. M., Fanger C. M.: TRPA1 mediates formalin-induced pain. Proc. Natl. Acad. Sci. U.S.A. 104, 2007, 13525-13530, 50 μL of a 2.0% formalin solution as a pain-inducing substance was subcutaneously administered under the skin of the plantar plate of the right hind limb of each rat.
Regarding the evaluation, the pain behavior inhibition ratio was determined from the pain behavior time of each test substance-administered group with respect to the pain behavior time of the vehicle-administered group for 15 minutes measured from 15 minutes to 30 minutes after the administration.
On to `O=C(N[C@@H]1CCN(c2ccc(F)c(C(F)(F)F)c2)C1)[C@H]1C[C@@H]1c1nc2ccccc2[nH]1` [Example 57, (1S,2S)-2-(1H-benzo[d]imidazol-2-yl)-N—((R)-1-(4-fluoro-3-(trifluoromethyl)phenyl)pyrrolidin-3-yl)cyclopropane-1-carboxyamide], for which the inhibition in vivo at 30 mg/kg was < 10%.

`Cn1ncc2cc(CC(=O)N[C@@H]3CCN(c4ccc(C(F)(F)F)nc4)C3)ccc21` [Example 144, (R)-2-(1-methyl-1H-indazol-5-yl)-N-(1-(6-(trifluoromethyl)pyridin-3-yl)pyrrolidin-3-yl)acetamide]: the inhibition in vivo at 30 mg/kg is ≥ 20%.

For a further assay, the system named is mouse PSNL model. Put plainly: Mechanical allodynia in mouse partial sciatic nerve ligation (PSNL) model. The class given is in vivo. The following applies: 30 mg/kg orally administered, compared with the vehicle group. The text has this: The production of a mouse PSNL model was achieved according to the method of Seltzer et al. A mouse was subjected to inhalation anesthesia with isoflurane. The femoral region of the mouse was shaved and disinfected with isodine. The skin on a thighbone of the mouse was incised, the fascia directly under the skin was cut, and the muscle heads of the musculus biceps femoris were split. The sciatic nerve directly under the fascia was checked, and then the sciatic nerve was detached so as not to damage the nerve. The needle of a needle with 8-0 silk thread was passed through the sciatic nerve to penetrate therethrough, and the sciatic nerve was ligated for about ½ to ⅓ of the whole nerve. The skin was sutured, and the mouse was raised for about 7 days. […]
The measurement of the pain threshold was carried out after transferring the mice into a cage for measurement and waiting for the exploratory behavior to disappear. Regarding the pain threshold (paw withdrawal filament ((g)), the plantar plates of the mice were stimulated with von Frey filaments (Sttoelting Co.: TOUCH-TEST SENSORY EVLUATOR) having different stimulus intensities, and the presence or absence of an escape response was observed. The 50% threshold was calculated by an up-down method with reference to the method of Chaplan et al. (Quantitative assessment of tactile allodynia in the rat paw. J neurosci Methods, 53, 1994, 55-63). […]
Turning to `Cn1ncc2cc(CC(=O)N[C@@H]3CCN(c4ccc(C(F)(F)F)nc4)C3)ccc21` [Example 144, (R)-2-(1-methyl-1H-indazol-5-yl)-N-(1-(6-(trifluoromethyl)pyridin-3-yl)pyrrolidin-3-yl)acetamide], the “mechanical allodynia (pain threshold, von Frey filament test)” value is “inhibited mechanical allodynia statistically significantly; also recorded: suppressed statistically significantly”.

As usually defined, the IC50 is the point on the concentration scale where inhibition reaches its midpoint.
